Assay: gradient 5% acetonitrile 3 min, to 50% in 2 min, to 85% in 15 min, held 3 min, 100 µL/min
Conditions: column: Zorbax Extend-C18 2.1 x 50 mm; eluents: water / acetonitrile, 0.1% formic acid
Summary of the method: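 Pure standards were analyzed in mixtures of ~100 molecules using HPLC coupled to a quadrupole time-of-flight mass spectrometer, in both positive and negative ionization mode. Separation used a Zorbax Extend-C18 column (2.1 × 50 mm, 1.8 μm) at 100 μL/min, with water and acetonitrile each containing 0.1% formic acid. Dead and dwell volumes were 40 μL and 900 μL, and data were collected over 3 months. Retention time was read from computationally picked adduct peaks, each inspected manually.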

Going from `O=C(c1cc2ccccc2[nH]1)N1CCCC1` to `O=C(c1ccc2nc(-c3ccccc3)cn2c1)N1CCOCC1`, the RP-LC retention time falls from 794 s to 580 s.

Going from `CCCCNC(=O)C1CCC(=O)N(c2ccc(OC)cc2)C1c1ccc(OC)cc1` (stereo not given) to `CCn1cnc2ccc(-c3noc(COc4ccc(OC)cc4)n3)cc21`, the RP-LC retention time falls from 756 s to 743 s.

Compared with `Cc1cccc(-c2nc(-c3ccc(-n4ccnc4)nc3)no2)c1`, `CCOc1cccc(-c2noc(-c3nn(-c4ccccc4)ccc3=O)n2)c1` is higher in RP-LC retention time: 814 s for the first, 942 s for the second.

Compared with `CC(C)NC(=O)N(C1CC1)C1CCOC2(CCN(C(=O)C3(c4ccccc4)CC3)CC2)C1` (stereo not given), `CCCS(=O)(=O)N1CCC2(CC1)CC(OCc1ccccc1)CCO2` (stereo not given) is higher in RP-LC retention time: 865 s for the first, 984 s for the second.

Going from `Cc1ccc(N2CCC(NC(=O)c3cccc(N(C)C)c3)C2=O)cc1` (stereo not given) to `CNC(=O)c1ccc(N2CCCN(Cc3ccccc3C)C2=O)cc1`, the RP-LC retention time falls from 931 s to 700 s.

Going from `COCC(C)(O)CNC(=O)c1cccnc1SC` (stereo not given) to `CCCNC(=O)CSc1ncccc1C(=O)O`, the RP-LC retention time rises from 577 s to 599 s.

Going from `Cc1ccc(-c2nnc(-c3nc(NCCc4cccs4)c4ccccc4n3)o2)cc1` to `CCCN1CCN(CCCNc2nc(-c3ccc(Cl)cc3)nc3ccccc23)CC1`, the RP-LC retention time falls from 1120 s to 584 s.

First: CCC(C)C(NC(=O)c1cccc(C)c1)C(=O)Nc1nc2ccccc2[nH]1 (stereo not given)
Second: CCCNC(=O)CCc1nc2ccccc2n(CC(=O)Nc2cccc(CC)c2)c1=O
The RP-LC retention time of the first is lower: 765 s for the first, 845 s for the second.

Going from `O=C(NCC(=O)N1CCCc2ccccc21)c1ccccc1Cl` to `COCCCNC(=O)C1c2ccccc2C(=O)N(Cc2ccccc2)C12CCCC2` (stereo not given), the RP-LC retention time rises from 835 s to 846 s.

Going from `CC(C)CNC(=O)CCn1c(=O)c2ccccc2n2c(=O)n(Cc3cccc(F)c3)nc12` to `CCc1ccccc1NC(=O)Cn1c(=O)n(-c2cccc(C)c2)c(=O)c2c1cc(C)n2C`, the RP-LC retention time rises from 867 s to 882 s.

Compared with `Cc1nnc(NC(=O)CNC(=O)c2ccc(=O)[nH]c2)s1`, `CNC(=O)Cc1csc(NC(=O)c2ccc(OCC(=O)C3CC3)cc2)n1` is higher in RP-LC retention time: 520 s for the first, 631 s for the second.

First: Cc1ccc2c(c1)N(S(C)(=O)=O)CCC(C(=O)Nc1ccc(F)cc1)O2 (stereo not given)
Second: CCOc1ccc(NC(=O)C2CCN(S(C)(=O)=O)c3ccccc3O2)cc1 (stereo not given)
The RP-LC retention time of the first is higher: 930 s for the first, 877 s for the second.

First: CCCc1ccc(S(=O)(=O)N2CCCC2c2nc(-c3ccc(F)cc3)no2)cc1 (stereo not given)
Second: COc1ccccc1-c1nnc(NC(=O)C2CCCN2S(=O)(=O)c2ccc(F)cc2)o1 (stereo not given)
The RP-LC retention time of the first is higher: 1270 s for the first, 717 s for the second.

First: COc1cccc(CCC(=O)NC2(c3nc(C)no3)CCCCC2)c1
Second: COc1ccc2[nH]c(C(=O)NC3CC3)cc2c1
The RP-LC retention time of the first is higher: 856 s for the first, 703 s for the second.

First: CCCNC(=O)C1CC(=O)N(c2n[nH]c3cccc(F)c23)C1 (stereo not given)
Second: CCCC(=O)Nc1nc(-c2ccc3c(c2)NC(=O)CO3)cs1
The RP-LC retention time of the first is lower: 626 s for the first, 728 s for the second.

First: Cc1cccc(CNC(=O)C2CCN(S(=O)(=O)c3ccc4c(c3)sc(=O)n4C(C)C)CC2)c1
Second: CC(C)C(=O)Nc1nc2cc(NC(=O)C3CCN(S(=O)(=O)N4CCCC4)CC3)ccc2s1
The RP-LC retention time of the first is higher: 985 s for the first, 805 s for the second.

First: O=C(NCCc1ccccc1)N1CCC(c2noc(-c3ccccn3)n2)C1 (stereo not given)
Second: CC(CCc1ccccc1)NC(=O)C1CCN(c2cc(Oc3ccccc3)ncn2)CC1 (stereo not given)
The RP-LC retention time of the first is lower: 742 s for the first, 998 s for the second.

Going from `Cc1ccc(-c2nc3ncccn3c2Nc2ccc(Cl)cc2)cc1` to `Cc1ccc(Nc2c(-c3ccc(N(C)C)cc3)nc3ncccn23)cc1Cl`, the RP-LC retention time falls from 827 s to 805 s.

First: COc1ccc(S(=O)(=O)NCCc2ccc(N3CCCC3)cc2)cc1OC
Second: Cc1ccc(CNS(=O)(=O)c2cc(-c3[nH]ncc3C(=O)N3CCCC3)oc2C)cc1C
The RP-LC retention time of the first is higher: 776 s for the first, 768 s for the second.

Compared with `COc1ccc(-n2c(=O)n(C)c(=O)c3cc(C(=O)NCc4ccncc4)cnc32)cc1`, `CS(=O)(=O)N(Cc1ccncc1)C1CN(C(=O)c2ccc3ncccc3c2)C1` is higher in RP-LC retention time: 596 s for the first, 698 s for the second.

Going from `CCCN(CC1CCOC1)C(=O)Nc1ccc(F)cc1` (stereo not given) to `O=C(CC1CCCCC1)N1CCN(c2ccc(=O)n(-c3ccc(F)cc3)n2)CC1`, the RP-LC retention time rises from 728 s to 901 s.

Compared with `COc1cc2c(cc1OC)CN(S(=O)(=O)CCCNC(=O)CC1CCCCC1)CC2`, `CCc1nnc(-c2coc(S(=O)(=O)N3CCN(C4CCCCC4)CC3)c2)o1` is lower in RP-LC retention time: 767 s for the first, 628 s for the second.

Going from `CCn1cc(SCC(=O)Nc2c(C)cc(C)cc2C)c2ccccc21` to `CCn1ccc(NC(=O)Nc2ccccc2C)n1`, the RP-LC retention time falls from 998 s to 801 s.

First: CC(C)Cn1nc2n(c1=O)CCN(S(=O)(=O)c1cccc3cccnc13)CC2
Second: O=c1n(Cc2ccccc2Cl)nc2c(S(=O)(=O)N3CCCC3)cccn12
The RP-LC retention time of the first is lower: 754 s for the first, 853 s for the second.

Compared with `O=S(=O)(Cc1cccc(F)c1)N1CCC(C2CCNC2)CC1` (stereo not given), `Cc1ccc(-c2nc(-c3ccc(S(=O)(=O)N4CCC(C(=O)N5CCCC5)CC4)cc3)no2)cc1` is higher in RP-LC retention time: 632 s for the first, 1090 s for the second.

Compared with `CCN(CC)S(=O)(=O)c1cc(-c2nnc(-c3cccc(C)c3)o2)ccc1Cl`, `CCCCn1nnc(NCc2ccc(-c3ccc(Cl)cc3Cl)o2)n1` is higher in RP-LC retention time: 1200 s for the first, 1280 s for the second.

First: Cc1c(CC(=O)NC(C)C)c(=O)n2nc(-c3ccccc3)nc2n1C
Second: CCOc1nc2ccccc2nc1N1CCCC(C(=O)Nc2ccccc2C(C)C)C1 (stereo not given)
The RP-LC retention time of the first is lower: 673 s for the first, 1230 s for the second.

Compared with `Cc1ccc(Nc2nc(-c3ccccc3)cs2)cc1`, `CCN(CC)c1ccc(Nc2nc(-c3ccc(OC)cc3)cs2)cc1` is lower in RP-LC retention time: 1170 s for the first, 742 s for the second.

Compared with `Cc1ccc(NC(=O)c2c(C)oc3nc(C)nc(N4CCCC4)c23)cc1`, `O=C(Nc1ccc2ncnc(N3CCCCC3)c2c1)c1ccc(Br)o1` is lower in RP-LC retention time: 774 s for the first, 704 s for the second.

Compared with `Cc1cccc(-c2noc(CSc3nc4cc5c(cc4c(=O)n3CC3CCCO3)OCO5)n2)c1` (stereo not given), `CCCn1c(=O)c(C)nc2cc(-c3noc(C4CC(=O)N(c5ccc(C)c(C)c5)C4)n3)ccc21` (stereo not given) is lower in RP-LC retention time: 1170 s for the first, 1050 s for the second.

First: COc1cccc(-c2noc(CN3C(=O)COc4ccc(C)cc43)n2)c1OC
Second: COc1ccc(CNC(=O)c2ccc3c(c2)OCO3)c(OC)c1
The RP-LC retention time of the first is higher: 981 s for the first, 749 s for the second.

First: CCOc1ccc(CC(=O)Nc2ccc(-c3nc(-c4ccccc4)co3)cc2)cc1OCC
Second: CCOc1ccc(CC(=O)N2CCCN(c3cc(-c4ccc(Br)cc4)[nH]n3)CC2)cc1OCC
The RP-LC retention time of the first is higher: 1150 s for the first, 842 s for the second.

Going from `CCCCN(C)C(=O)c1cc2c(s1)N(CC)CCCC2` to `CC(C)(C)NC(=O)c1ccc2c(c1)CCCN2S(C)(=O)=O`, the RP-LC retention time falls from 1100 s to 746 s.

Compared with `COc1cc(Nc2ncc(C(=O)O)c(C(C)C)n2)cc(OC)c1`, `COc1ccc(NC(=O)Cn2c(=O)c3cc(-c4ccco4)nn3c3ncccc32)cc1Cl` is lower in RP-LC retention time: 892 s for the first, 822 s for the second.

Going from `O=C(NCCN1CCOCC1)c1ccc(CS(=O)Cc2cccc(Cl)c2)o1` (stereo not given) to `CSc1ccc(CNC(=O)COc2cc(C)nc(N3CCN(c4ccccc4)CC3)n2)cc1`, the RP-LC retention time rises from 601 s to 857 s.

Going from `CC(C)CNC(=O)c1sc2ncccc2c1-n1cccc1` to `Cc1nc(-c2cn(C)c3ncccc23)sc1C(=O)NCc1ccc2c(c1)OCO2`, the RP-LC retention time falls from 971 s to 826 s.

Going from `CC1(c2noc(C3CC3)n2)CCN(C(=O)C2CCN(S(=O)(=O)N3CCOCC3)CC2)CC1` to `CCCn1ncc(N2CCC(C(=O)N3CCN(CC)CC3)CC2)cc1=O`, the RP-LC retention time falls from 784 s to 567 s.

Compared with `CC(C)OCCCNC(=O)c1ccc2c(c1)NC(=O)C(C(C)C)N2` (stereo not given), `CCN(CC)C(=O)c1ccc2c(c1)nnn2CCNC(=O)NC(C)(C)C` is lower in RP-LC retention time: 688 s for the first, 658 s for the second.

Going from `COC(=O)c1ncn2c1C(=O)N(C1CC1)C(C)(C(=O)NCc1ccc(C)cc1)C2` (stereo not given) to `Cc1cccc2c(=O)n(C3CCN(C(=O)Nc4ccc(F)cc4F)CC3)cnc12`, the RP-LC retention time rises from 643 s to 770 s.

Compared with `Cc1ccc(S(=O)(=O)N2CC3CN(C(=O)c4ccc5c(c4)OCO5)CC(C2)O3)cc1`, `COc1ccc(C(=O)NC2CCN(c3cc(-c4ccc(Cl)cc4)[nH]n3)C2)cc1` (stereo not given) is lower in RP-LC retention time: 804 s for the first, 776 s for the second.

Going from `Cc1nn(C(C)C(=O)Nc2ccc(Cl)cc2)c(=O)c2c(-n3cccc3)n(-c3ccccc3)nc12` (stereo not given) to `Cc1cc(C(=O)NCc2ccc(F)cc2)n(-c2ccccc2)n1`, the RP-LC retention time falls from 1160 s to 813 s.

Compared with `CCn1ccc(C(=O)N(CC2CCCO2)c2nc3c(C(C)C)cccc3s2)n1` (stereo not given), `CC(=O)c1ccc(N2CCN(C(=O)Cn3cccc3-c3nnc(C4CCC4)o3)CC2)cc1` is lower in RP-LC retention time: 1370 s for the first, 824 s for the second.

First: O=C(N[C@H]1C[C@@H]2C[C@H]1N(C(=O)c1cccc(C(F)(F)F)c1)C2)c1cccs1
Second: Cc1cc(C)cc(C(=O)N2C[C@@H]3C[C@H](NC(=O)c4cccnc4)[C@H]2C3)c1
The RP-LC retention time of the first is higher: 839 s for the first, 658 s for the second.

First: O=C(Nc1ccc(Oc2ccc(NC(=O)Nc3ccc([N+](=O)[O-])cc3)cc2)cc1)Nc1ccc([N+](=O)[O-])cc1
Second: COc1ccc(NC(=O)CN2C(=O)c3ccccc3C2=O)c2ccccc12
The RP-LC retention time of the first is higher: 1110 s for the first, 782 s for the second.

First: Cc1ccccc1-c1nnc(CSc2ccc(N)cc2)o1
Second: CO[C@H]1C(=O)N(C(C)C)[C@H]1C1CCN(C(=O)C2CC2)CC1
The RP-LC retention time of the first is higher: 818 s for the first, 657 s for the second.

Source: the METLIN SMRT retention time set (Domingo-Almenara et al. 2019)
